According to US20180201592A1, “2-AMINO-1,3,4-THIADIAZINE AND 2-AMINO-1,3,4-OXADIAZINE BASED ANTIFUNGAL AGENTS” (F2G Limited, priority 2015, published 2018):
Converted amounts (≈) assume the structure as drawn. Where two headings read alike, the source gives them in different places.

Columns and labels:
C. tropicalis = assay: Minimum inhibitory concentration, RPMI medium; type: cell-based; settings: banded MIC grade; for MIC: Candida tropicalis, RPMI media
How it was run: (§1)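 Growth inhibition was judged from optical density at 485 nm per well after 24-48 hrs at 35° C. Test compound came from a 5 mg/mL DMSO stock, serially doubled in water before testing in RPMI 1640.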

C. parapsilosis = assay: Minimum inhibitory concentration, RPMI medium; type: cell-based; settings: banded MIC grade; for MIC: Lodderomyces parapsilosis, RPMI media
How it was run: as §1

C. albicans = assay: Minimum inhibitory concentration, RPMI medium; type: cell-based; settings: banded MIC grade; for MIC: Candida albicans, RPMI media
How it was run: as §1

A. fumigatus 210 = assay: Minimum inhibitory concentration, YAG medium; type: cell-based, Aspergillus fumigatus; settings: banded MIC grade; for MIC: Aspergillus fumigatus, 210, YAG media
How it was run: (§2)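 Broth microdilution in YAG medium (1% glucose, 1% ammonium chloride, 0.5% yeast extract) with spore inocula of 1-2×10^4 cfu/mL and doubling dilutions typically spanning 50-0.05 mg/L. Plates were incubated 24 hrs at 35° C and read by OD 485 nm. MIC is the lowest concentration giving >70% growth inhibition versus drug-free control, in mg/L.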

A. terreus 49 = assay: Minimum inhibitory concentration, YAG medium; type: cell-based, Aspergillus terreus; settings: banded MIC grade; for MIC: Aspergillus terreus, 49, YAG media
How it was run: (§3)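 Growth inhibition was read as absorbance at 485 nm after spores of Aspergillus spp. were exposed for 24 hrs at 35° C to doubling dilutions of the compound. Dilutions were made in water starting from a 5 mg/mL DMSO stock, and MIC values were expressed in mg/L.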

Aspergillus fumigatus = assay: Minimum inhibitory concentration, YAG medium; type: cell-based; settings: banded MIC grade; for MIC: Aspergillus fumigatus, YAG media
How it was run: as §2

Aspergillus terreus = assay: Minimum inhibitory concentration, YAG medium; type: cell-based; settings: banded MIC grade; for MIC: Aspergillus terreus, YAG media
How it was run: as §3

Aspergillus niger = assay: Minimum inhibitory concentration, YAG medium; type: cell-based; settings: banded MIC grade; for MIC: Aspergillus niger, YAG media
How it was run: as §3

Aspergillus flavus = assay: Minimum inhibitory concentration, YAG medium; type: cell-based; settings: banded MIC grade; for MIC: Aspergillus flavus, YAG media
How it was run: as §3

[1] = read-out: MIC grade C. PARAPSILOSIS
[2] = read-out: MIC grade, C. PARAPSILOSIS, RPMI media
[3] = read-out: MIC grade C. ALBICANS
[4] = read-out: MIC grade, C. ALBICANS, RPMI media

SMILES	MIC (C. tropicalis)	MIC (C. parapsilosis; [1])	MIC (C. parapsilosis; [2])	MIC (C. albicans; [3])	MIC (C. albicans; [4])	MIC (A. fumigatus 210)	MIC (A. terreus 49)	MIC (Aspergillus fumigatus)	MIC (Aspergillus terreus)	MIC (Aspergillus niger)	MIC (Aspergillus flavus)	MIC grade, C. TROPICALIS, RPMI media (C. tropicalis)	MIC grade, C. PARAPSILOSIS, RPMI media (C. parapsilosis)	MIC grade, C. ALBICANS, RPMI media (C. albicans)	MIC grade, A. FUMIGATUS 210, YAG media (A. fumigatus 210)	MIC grade, A. TERREUS 49, YAG media (A. terreus 49)	MIC grade, A. FUMIGATUS, YAG media (Aspergillus fumigatus)	MIC grade, A. TERREUS, YAG media (Aspergillus terreus)	MIC grade, A. NIGER, YAG media (Aspergillus niger)	MIC grade, A. FLAVUS, YAG media (Aspergillus flavus)
CN1N=C(N)SC=C1c1ccc(Cl)cc1 [5-(4-chlorophenyl)-4-methyl-1,3,4-thiadiazin-2-amine]	5 to 20 µg/mL (≈ 20.9 to 83.4 µM)	< 1 µg/mL	< 1 µg/mL	1 to 5 µg/mL (≈ 4.17 to 20.9 µM)	1 to 5 µg/mL (≈ 4.17 to 20.9 µM)	< 0.2 µg/mL	< 0.2 µg/mL	< 0.2 µg/mL	< 0.2 µg/mL	< 0.2 µg/mL	< 0.2 µg/mL									
COc1ccc(C2=CSC(N)=NN2C)cc1 [5-(4-methoxyphenyl)-4-methyl-1,3,4-thiadiazin-2-amine]	1 to 5 µg/mL (≈ 4.25 to 21.2 µM)	< 1 µg/mL	< 1 µg/mL	< 1 µg/mL	< 1 µg/mL	< 0.2 µg/mL	< 0.2 µg/mL	< 0.2 µg/mL	< 0.2 µg/mL	< 0.2 µg/mL	< 0.2 µg/mL									
CN1N=C(N)SC=C1c1cc2ccccc2o1 [5-(benzofuran-2-yl)-4-methyl-1,3,4-thiadiazin-2-amine]	≥ 20 µg/mL	5 to 20 µg/mL (≈ 20.4 to 81.5 µM)	≥ 20 µg/mL	5 to 20 µg/mL (≈ 20.4 to 81.5 µM)	≥ 20 µg/mL	0.2 to 1 µg/mL (≈ 0.815 to 4.08 µM)	0.2 to 1 µg/mL (≈ 0.815 to 4.08 µM)	1 to 5 µg/mL (≈ 4.08 to 20.4 µM)	0.2 to 1 µg/mL (≈ 0.815 to 4.08 µM)	1 to 5 µg/mL (≈ 4.08 to 20.4 µM)	1 to 5 µg/mL (≈ 4.08 to 20.4 µM)									
CCCCCCCC1=CSC(N)=NN1 [5-heptyl-4~{H}-1,3,4-thiadiazin-2-amine]												3 (3: 1-5 mg/L)	3 (3: 1-5 mg/L)	3 (3: 1-5 mg/L)	4 (4: <0.2 mg/L)	3 (3: 0.2-1 mg/L)	4 (4: <0.2 mg/L)	4 (4: <0.2 mg/L)	4 (4: <0.2 mg/L)	4 (4: <0.2 mg/L)
NC1=NN=C(c2ccccc2)CS1 [5-phenyl-6~{H}-1,3,4-thiadiazin-2-amine]												1 (1: ≥20 mg/L)	1 (1: ≥20 mg/L)	1 (1: ≥20 mg/L)	3 (3: 0.2-1 mg/L)	3 (3: 0.2-1 mg/L)	3 (3: 0.2-1 mg/L)	3 (3: 0.2-1 mg/L)	3 (3: 0.2-1 mg/L)	3 (3: 0.2-1 mg/L)
CCOC(=O)c1ccc(C2=CSC(N)=NN2C)cc1 [ethyl 4-(2-amino-4-methyl-1,3,4-thiadiazin-5-yl)benzoate]	1 to 5 µg/mL (≈ 3.61 to 18 µM)	< 1 µg/mL	< 1 µg/mL	< 1 µg/mL	1 to 5 µg/mL (≈ 3.61 to 18 µM)	< 0.2 µg/mL	0.2 to 1 µg/mL (≈ 0.721 to 3.61 µM)	< 0.2 µg/mL	< 0.2 µg/mL	0.2 to 1 µg/mL (≈ 0.721 to 3.61 µM)	< 0.2 µg/mL									
